# Reference: US20200352918A1, “COMPOUNDS AND METHODS FOR TREATING OR PREVENTING FIBROSIS” (priority 2019, published 2020)
# Entries after “also recorded” stand apart in the source; their conditions may differ.
# Tests used:
# Type in all cases: cell-based, human
# [1] = tested on: iFA model; assay: Proliferation by EdU labeling in the iFA model; details: AA5-prevention vs DMSO, 6 h EdU
# Experimental: Cells were incubated with 10 μM EdU (Invitrogen) at specified time points of culture for 6 hrs, fixed with 4% PFA, and detected by staining with Alexa594-azide according to the manufacturer's instructions. The cells were additionally counterstained with Vimentin and/or α-SMA and DAPI.
# [2] = tested on: HMGB1; assay: HMGB1 (ELISA, IF) in the iFA model
# Experimental: (§1) Conditioned media at different time points of progression of the phenotype, and on prevention and resolution drug treatments were collected and quantification of protein was performed using the IBL man HMGB1 ELISA kit or LSBio NPTX1 ELISA kits per manufacturer's instructions. 10 μl of each supernatant sample was added to anti-HMGB1 polyclonal antibody-coated plate and incubated for 20 hours at 37° C. All liquid was then removed and the plate manually washed 5 times with wash buffer. 100 μl of enzyme conjugate was then added and incubated for 2 hours at room temperature. After washing again, color solution was added at 100 μl per well and incubated for 30 minutes at room temperature. Following an additional five washes, the plate was incubated with 90 μl of TMB substrate for another 15 minutes at 37° C. in the dark. The reaction was then stopped by addition 100 μl of stop solution. Absorbance was measured at 450 nm using a SpectraMAX Plate Reader. Data was analyzed using SoftMax Pro software.
# Cells grown on coverslips were fixed in 4% paraformaldehyde (PFA) for 10 min at room temperature and washed three times with TBS buffer supplemented with 0.1% Tween 20 (TBST). Lung samples were fixed overnight in 4% PFA at room temperature, washed 3 times in PBS, dehydrated and then infiltrated and embedded with wax. Five-micron sections were collected on glass slides, deparaffinized and rehydrated. […]
# [3] = tested on: SSEA4+ cells; assay: FACS of SSEA4+ cells in the iFA model; details: AA5 treatment
# Experimental: For determination of various cell populations in the iFA model, the cells were dissociated using Accumax (Stem Cell Technologies) for 5 minutes, pelleted and resuspended in FACS buffer (3% Fetal Bovine Serum/PBS). 1×10^6 cells were incubated with a the appropriate conjugated antibody listed in Table 3 for 20 minutes at 4° C. under shaking conditions. The cells were washed with the FACS buffer and acquired using a flow cytometer (BD LSRII) and analysed using FACS Diva and FlowJo softwares.
# [4] = tested on: Idiopathic Pulmonary Fibrosis patient lung slices; assay: Ex vivo fibrotic lung slice culture (LSC) system
# Experimental: The Milliplex human cytokine/chemokine Panel IV, human TIMP Panel 2, and human TGFβ 1,2,3 magnetic bead kits (EMD Millipore) were used per manufacturer's instructions. Prior to plating, all samples tested for human TGFβ only were activated and neutralized with 1.0 N HCl and 1.0 N NaOH, respectively. Briefly, 25 μl of undiluted or treated cell culture supernatant samples were mixed with 25 μl of magnetic beads and allowed to incubate overnight at 4° C. while shaking. After washing the plates with wash buffer in a Biotek ELx405 washer, 25 μl of biotinylated detection antibody was added and incubated for 1 hour at room temperature while shaking. 25 μl of streptavidin-phycoerythrin conjugate was then added to the reaction mixture and incubated for another 30 minutes at room temperature while shaking. Following additional washes, beads were resuspended in sheath fluid, and fluorescence was quantified using a Luminex 200 instrument. Similarly, a custom magnetic Luminex assay kit of select analytes (R&D Systems) was used per manufacturer's instructions. Cell culture supernatants were prepared with a 2-fold dilution. 50 μl of diluted sample were added to 50 μl of provided micro-particle cocktail and incubated for 2 hours at room temperature while shaking. After washing with wash buffer, 50 μl of biotin antibody cocktail was added and incubated for 1 hour at room temperature while shaking. Following additional washes, 50 μl of diluted Streptavidin-PE was then added for incubation for 30 minutes at room temperature while shaking. The plate was then washed again and the micro-particles resuspended in 100 μl wash buffer. After an additional 2-minute incubation while shaking, the data was acquired using a Luminex 200 instrument.
# as §1
# In-vitro cultures of PF and cells in the iFA model were washed once with PBS and total RNA from the samples were extracted using the RNeasy Mini Kit (Qiagen) according to the manufacturer's instructions. For the lung slice cultures (LSC), tissues were snap-frozen after treatment and stored at −80° C. until RNA isolation. Lung slices were homogenized using a handheld homogenizer and passing the homogenate through a Qiashredder (Qiagen). Total RNA from the LSC and cells from the disease model were extracted using the RNeasy Mini Kit (Qiagen) according to the manufacturer's instructions. The RNA concentrations were measured on a NanoDrop ND-1000 spectrophotometer. Single-stranded cDNA was synthesized from 200 ng of total RNA using Superscript IV and random hexamer primers (Invitrogen) in a volume of 20 μl. cDNA was then used for qRT-PCR analysis. PCR reactions were performed using Taqman Gene Expression Assay mix (Applied Biosystems) according to the manufacturer's instructions.
# All human samples were obtained in accordance with institute IRB. Tissue for lung slice experiments was obtained from patients with Idiopathic Pulmonary Fibrosis (IPF) at the time of lung transplant. […]
smiles,measurement,setting,value
Cc1c(C(=O)Nc2nc3ccccc3s2)sc2nc3cc4c(cc3cc12)OCO4 [AA5],Proliferation (EdU),[1],no effect on proliferation; also recorded: did not display any significant difference in the proliferation rate
same,Cytoplasmic HMGB1 (IF staining),[2]; AA5-prevention and AA5-resolution vs DMSO,absence or significantly reduced cytoplasmic HMGB1
same,Secreted levels of HMGB1,"[2]; iFA model, AA5p and AA5r vs DMSO",attenuated
same,Percentages of SSEA4+ cells,[3],attenuated
same,Secretion of matrix degrading proteases MMP-9 and uPA,"[4]; 10 μM AA5, 48 hours",increased secretion
same,"ACTA-2, COL1A2 and TGF-β3 mRNA expression","[4]; 10 μM AA5, 48 hours, vs DMSO, not TGF-β1/2",significantly reduced
same,"Secreted TGF-β3, TIMP-4 and POSTN protein","[4]; 10 μM AA5, 48 hours, not TGF-β1/2",decreased levels
same,NPTX1 mRNA and protein level,[4]; AA5-treated LSCs,upregulated
same,Scavenger receptor CD163L1,[4]; AA5-treated LSCs,upregulated and secreted
same,HMGB1 immunostaining,[4]; AA5-treated LSCs vs DMSO,exclusively nuclear staining
same,Secreted HMGB1 (luminex),"[4]; AA5-treated LSCs, 48 hours",markedly decreased
same,Reduction of fibrosis-initiating SSEA4+ cells,"[4]; AA5-treated LSCs, p value <0.001",> 50%
